Patent publication US6066310A, “Diagnostic and therapeutic method for tumor using radiolabeled avidin” (Nihon Medi-Physics Co., Ltd., priority 1997, dated 2000)
Where two headings read alike, the source gives them in different places.

Conditions: 2 hours after biotin, LS180 xenografted mice
Experimental: LS 180-tumor xenografted mice received injection with 300 μg unlabeled avidin and 1-24 hours later injection with 0.3 μg In-111 labeled biotin. […] After 2 hours from the injection of biotin, 4-5 mice per group were sacrificed and measured for distribution of radioactivity.

[1] = biotin 1 hr after pre-targeting of avidin
[2] = biotin 4 hr after pre-targeting of avidin
[3] = biotin 8 hr after pre-targeting of avidin
[4] = biotin 24 hr after pre-targeting of avidin
[5] = without pre-targeting of avidin

With `O=C([O-])CN(CCN(CC(=O)[O-])CC(=O)NC(CCCCNC(=O)CCCCC1SCC2NC(=O)NC21)C(=O)O)CCN(CC(=O)[O-])CC(=O)NC(CCCCNC(=O)CCCCC1SCC2NC(=O)NC21)C(=O)O.[111In+3]` (stereo not drawn) [radiolabeled biotin] the “Tumor/Blood ratio of radioactivity” value [1] was 160.3 ± 26.9, the “Tumor/Bone ratio of radioactivity” value [1] was 60.7 ± 13.7 and the “Tumor/Kidney ratio of radioactivity” value [1] was 3.48 ± 0.94. The “Tumor/Liver ratio of radioactivity” value [1] was 4.19 ± 1.45, the “Tumor/Spleen ratio of radioactivity” value [1] was 5.14 ± 2.58 and the “radioactivity per 1 g of organ: Blood” value [1] was 0.38 ± 0.08. The “radioactivity per 1 g of organ: Bone” value [1] was 0.99 ± 0.08, the “radioactivity per 1 g of organ: Intestine” value [1] was 1.03 ± 0.30 and the “radioactivity per 1 g of organ: Kidney” value [1] was 17.44 ± 2.16. The “radioactivity per 1 g of organ: Liver” value [1] was 14.77 ± 2.84, the “radioactivity per 1 g of organ: Lung” value [1] was 1.07 ± 0.91 and the “radioactivity per 1 g of organ: Muscle” value [1] was 0.10 ± 0.06. The “radioactivity per 1 g of organ: Spleen” value [1] was 12.85 ± 4.02, the “radioactivity per 1 g of organ: Stomach” value [1] was 3.24 ± 0.63 and the “radioactivity per 1 g of organ: Tumor” value [1] was 59.28 ± 9.89. For the same molecule, the “Tumor/Blood ratio of radioactivity” value [2] was 159.0 ± 50.9, the “Tumor/Bone ratio of radioactivity” value [2] was 107.3 ± 79.1 and the “Tumor/Kidney ratio of radioactivity” value [2] was 12.26 ± 2.75. For the same molecule, the “Tumor/Liver ratio of radioactivity” value [2] was 20.89 ± 5.43, the “Tumor/Spleen ratio of radioactivity” value [2] was 22.03 ± 9.18 and the “radioactivity per 1 g of organ: Blood” value [2] was 0.25 ± 0.03. For the same molecule, the “radioactivity per 1 g of organ: Bone” value [2] was 0.60 ± 0.45, the “radioactivity per 1 g of organ: Intestine” value [2] was 0.27 ± 0.06 and the “radioactivity per 1 g of organ: Kidney” value [2] was 3.30 ± 0.94. The “radioactivity per 1 g of organ: Liver” value [2] was 1.92 ± 0.58, the “radioactivity per 1 g of organ: Lung” value [2] was 0.32 ± 0.11 and the “radioactivity per 1 g of organ: Muscle” value [2] was 0.32 ± 0.22. The “radioactivity per 1 g of organ: Spleen” value [2] was 2.14 ± 1.24, the “radioactivity per 1 g of organ: Stomach” value [2] was 1.08 ± 0.44 and the “radioactivity per 1 g of organ: Tumor” value [2] was 39.31 ± 11.3. The “Tumor/Blood ratio of radioactivity” value [3] was 52.6 ± 23.9, the “Tumor/Bone ratio of radioactivity” value [3] was 59.22 ± 35.9 and the “Tumor/Kidney ratio of radioactivity” value [3] was 7.18 ± 2.66. The “Tumor/Liver ratio of radioactivity” value [3] was 48.14 ± 20.2, the “Tumor/Spleen ratio of radioactivity” value [3] was 40.87 ± 15.0 and the “radioactivity per 1 g of organ: Blood” value [3] was 0.20 ± 0.03. The “radioactivity per 1 g of organ: Bone” value [3] was 0.20 ± 0.07, the “radioactivity per 1 g of organ: Intestine” value [3] was 0.11 ± 0.02 and the “radioactivity per 1 g of organ: Kidney” value [3] was 1.41 ± 0.29. For the same molecule, the “radioactivity per 1 g of organ: Liver” value [3] was 0.21 ± 0.04, the “radioactivity per 1 g of organ: Lung” value [3] was 0.19 ± 0.10 and the “radioactivity per 1 g of organ: Muscle” value [3] was 0.06 ± 0.03. For the same molecule, the “radioactivity per 1 g of organ: Spleen” value [3] was 0.26 ± 0.13, the “radioactivity per 1 g of organ: Stomach” value [3] was 0.13 ± 0.09 and the “radioactivity per 1 g of organ: Tumor” value [3] was 10.49 ± 5.16. The “Tumor/Blood ratio of radioactivity” value [4] was 9.72 ± 2.07, the “Tumor/Bone ratio of radioactivity” value [4] was 9.42 ± 2.29 and the “Tumor/Kidney ratio of radioactivity” value [4] was 1.39 ± 0.40. For the same molecule, the “Tumor/Liver ratio of radioactivity” value [4] was 11.20 ± 3.77, the “Tumor/Spleen ratio of radioactivity” value [4] was 14.75 ± 5.59 and the “radioactivity per 1 g of organ: Blood” value [4] was 0.15 ± 0.07. The “radioactivity per 1 g of organ: Bone” value [4] was 0.17 ± 0.13, the “radioactivity per 1 g of organ: Intestine” value [4] was 1.18 ± 1.35 and the “radioactivity per 1 g of organ: Kidney” value [4] was 1.01 ± 0.23. The “radioactivity per 1 g of organ: Liver” value [4] was 0.13 ± 0.02, the “radioactivity per 1 g of organ: Lung” value [4] was 0.13 ± 0.06 and the “radioactivity per 1 g of organ: Muscle” value [4] was 0.12 ± 0.16. For the same molecule, the “radioactivity per 1 g of organ: Spleen” value [4] was 0.10 ± 0.01, the “radioactivity per 1 g of organ: Stomach” value [4] was 1.49 ± 1.61 and the “radioactivity per 1 g of organ: Tumor” value [4] was 1.45 ± 0.70. The “Tumor/Blood ratio of radioactivity” value [5] was 5.78 ± 2.44, the “Tumor/Bone ratio of radioactivity” value [5] was 5.97 ± 3.51 and the “Tumor/Kidney ratio of radioactivity” value [5] was 0.55 ± 0.22. For the same molecule, the “Tumor/Liver ratio of radioactivity” value [5] was 3.90 ± 1.32, the “Tumor/Spleen ratio of radioactivity” value [5] was 3.94 ± 1.79 and the “radioactivity per 1 g of organ: Blood” value [5] was 0.12 ± 0.03. The “radioactivity per 1 g of organ: Bone” value [5] was 0.25 ± 0.34, the “radioactivity per 1 g of organ: Intestine” value [5] was 0.49 ± 0.46 and the “radioactivity per 1 g of organ: Kidney” value [5] was 1.23 ± 0.21. The “radioactivity per 1 g of organ: Liver” value [5] was 0.17 ± 0.05, the “radioactivity per 1 g of organ: Lung” value [5] was 0.14 ± 0.05 and the “radioactivity per 1 g of organ: Muscle” value [5] was 0.20 ± 0.27. For the same molecule, the “radioactivity per 1 g of organ: Spleen” value [5] was 0.18 ± 0.05, the “radioactivity per 1 g of organ: Stomach” value [5] was 0.12 ± 0.03 and the “radioactivity per 1 g of organ: Tumor” value [5] was 0.70 ± 0.35.
